The target of this experiment is Aldehyde dehydrogenase (Saccharomyces cerevisiae). As to the kind of experiment: In vitro inhibition against yeast Aldehyde dehydrogenase.

The structures appear in SMILES notation.

`O=C1c2ccccc2S(=O)(=O)N1O` [2-Hydroxy-1,1-dioxo-1,2-dihydro-1lambda*6*-benzo[d]isothiazol-3-one] came in with an IC50 above 1000 µM.

As for `CC(=O)ON1C(=O)c2ccccc2S1(=O)=O` [Acetic acid 1,1,3-trioxo-1,3-dihydro-1lambda*6*-benzo[d]isothiazol-2-yl ester], the IC50 amounted to 240 µM.

In general, IC50 refers to the concentration that inhibits the measured activity by half.
